Assay results: patent US9035056B2, “Pyrido[4,3-b]indole and pyrido[3,4-b]indole derivatives and methods of use” (Medivation Technologies, Inc., priority 2011, dated 2015)

Key:
[1] = molecular target: T1, human recombinant adrenergic α1D receptor (Homo sapiens, UniProt P25100); test: Adrenergic α1D radioligand binding ([3H]Prazosin); conditions: 0.1 μM compound; read-out: Percentage inhibition of ligand binding, Adrenergic α1D
T1 construct: expressed in transfected cells; host or cells: HEK-293
T1 sequence (P25100 1-572): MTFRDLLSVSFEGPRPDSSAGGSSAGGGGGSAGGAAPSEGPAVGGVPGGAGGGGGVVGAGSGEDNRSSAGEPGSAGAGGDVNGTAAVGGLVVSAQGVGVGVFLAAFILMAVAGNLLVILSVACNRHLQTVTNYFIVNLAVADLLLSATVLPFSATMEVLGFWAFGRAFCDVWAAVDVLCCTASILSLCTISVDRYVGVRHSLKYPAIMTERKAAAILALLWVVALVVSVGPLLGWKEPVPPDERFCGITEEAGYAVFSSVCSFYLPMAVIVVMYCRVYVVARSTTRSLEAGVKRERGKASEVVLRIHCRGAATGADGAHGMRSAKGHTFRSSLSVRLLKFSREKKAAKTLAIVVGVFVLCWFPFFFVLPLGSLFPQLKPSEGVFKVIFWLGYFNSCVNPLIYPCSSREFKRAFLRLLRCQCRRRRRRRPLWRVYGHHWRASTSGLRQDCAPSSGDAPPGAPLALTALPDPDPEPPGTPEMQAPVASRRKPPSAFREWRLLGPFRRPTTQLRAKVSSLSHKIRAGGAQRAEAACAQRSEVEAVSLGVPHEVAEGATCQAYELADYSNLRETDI
Procedure: To evaluate in radioligand binding assays the activity of compounds of the invention, human recombinant adrenergic α1D receptor expressed in human embryonic kidney (HEK-293) cells (Kenny, B. et al, Br. J. Pharmacol. 115(6):981, 1995) in a 50 mM Tris-HCl buffer, pH 7.4, was used. Compounds of invention were incubated with 0.6 nM [^3H]Prazosin for 60 min at 25° C. Non-specific binding was estimated in the presence of 10 μM phentolamine. Receptor proteins were filtered and washed, the filters were then counted to determine [^3H]Prazosin specifically bound. Compounds were screened at 1 μM or lower, using 1% DMSO as vehicle. Biochemical assay results are presented as the percent inhibition of specific binding in Table 3.

[2] = molecular target: T2, human recombinant serotonin (5-Hydroxytryptamine) 5-HT2A receptor (Homo sapiens, UniProt P28223); test: Serotonin 5-HT2A radioligand binding ([3H]Ketanserin); conditions: 0.1 μM compound; read-out: Percentage inhibition of ligand binding, Serotonin 5-HT2A
T2 construct: expressed in transfected cells; host or cells: CHO-K1
T2 sequence (P28223 whole entry): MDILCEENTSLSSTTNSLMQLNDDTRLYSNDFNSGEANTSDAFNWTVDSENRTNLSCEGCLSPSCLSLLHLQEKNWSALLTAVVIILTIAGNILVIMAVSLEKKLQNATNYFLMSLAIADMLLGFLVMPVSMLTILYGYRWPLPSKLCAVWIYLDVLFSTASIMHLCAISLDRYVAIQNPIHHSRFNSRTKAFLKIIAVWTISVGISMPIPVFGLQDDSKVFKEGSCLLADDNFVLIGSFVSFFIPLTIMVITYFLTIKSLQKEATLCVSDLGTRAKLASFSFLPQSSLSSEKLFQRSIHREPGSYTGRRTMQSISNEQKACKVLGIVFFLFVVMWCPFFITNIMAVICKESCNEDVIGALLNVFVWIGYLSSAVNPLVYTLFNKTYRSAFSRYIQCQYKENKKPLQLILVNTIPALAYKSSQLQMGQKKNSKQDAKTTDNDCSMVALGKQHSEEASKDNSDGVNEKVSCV
Procedure: To evaluate in radioligand binding assays the activity of compounds of the invention, human recombinant serotonin (5-Hydroxytryptamine) 5-HT2A receptor expressed in Chinese hamster ovary (CHO) K1 cells (Bonhaus, D. et al, Br. J. Pharmacol. 115:622, 1995; Saucier, C. et al, J. Neurochem. 68:1998, 1997) in a 50 mM Tris-HCl buffer, pH 7.4, was used. Compounds of the invention were incubated with 0.5 nM [^3H]Ketanserin for 60 min at 25° C. Non-specific binding was estimated in the presence of 1 μM Mianserin. Receptor proteins were filtered and washed, the filters were then counted to determine [^3H]Ketanserin specifically bound. Compounds were screened at 1 μM or lower, using 1% DMSO as vehicle. Biochemical assay results are presented as the percent inhibition of specific binding in Table 5.

[3] = molecular target: T3, human recombinant serotonin (5-Hydroxytryptamine) 5-HT5A receptor (Homo sapiens, UniProt P47898); test: Serotonin 5-HT5A radioligand binding ([3H]LSD); conditions: 0.1 μM compound; read-out: Percentage inhibition of ligand binding, Serotonin 5-HT5A
T3 construct: expressed in transfected cells; host or cells: CHO-K1
T3 sequence (P47898 whole entry): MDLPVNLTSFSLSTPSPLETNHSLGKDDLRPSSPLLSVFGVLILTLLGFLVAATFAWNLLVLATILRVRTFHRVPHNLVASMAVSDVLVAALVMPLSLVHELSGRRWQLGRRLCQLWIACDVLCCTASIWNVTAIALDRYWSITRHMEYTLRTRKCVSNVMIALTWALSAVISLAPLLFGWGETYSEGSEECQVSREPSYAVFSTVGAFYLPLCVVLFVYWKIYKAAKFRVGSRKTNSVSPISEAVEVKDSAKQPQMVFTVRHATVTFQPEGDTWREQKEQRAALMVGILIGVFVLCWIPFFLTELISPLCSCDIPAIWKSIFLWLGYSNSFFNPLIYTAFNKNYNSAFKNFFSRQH
Procedure: To evaluate in radioligand binding assays the activity of compounds of the invention, human recombinant serotonin (5-Hydroxytryptamine) 5-HT5A receptor expressed in Chinese hamster ovary (CHO) K1 cells (Rees, S. et al, FEBS Lett. 355:242, 1994) in a modified Tris-HCl buffer (50 mM Tris-HCl, pH 7.4, 10 mM MgCl2, 0.5 mM EDTA) was used. Compounds of the invention were incubated with 1.7 nM [^3H]Lysergic acid diethylamide (LSD) for 60 min at 37° C. Non-specific binding was estimated in the presence of 100 μM Serotonin (5-HT). Receptor proteins were filtered and washed, the filters were counted to determine [^3H]LSD specifically bound. Compounds were screened at 1 μM or lower, using 1% DMSO as vehicle. Biochemical assay results are presented as the percent inhibition of specific binding in Table 5.

[4] = molecular target: T4, human recombinant serotonin (5-Hydroxytryptamine) 5-HT6 receptor (Homo sapiens, UniProt P50406); test: Serotonin 5-HT6 radioligand binding ([3H]LSD); conditions: 0.1 μM compound; read-out: Percentage inhibition of ligand binding, Serotonin 5-HT6
T4 construct: expressed in transfected cells; host or cells: HeLa
T4 sequence (P50406 whole entry): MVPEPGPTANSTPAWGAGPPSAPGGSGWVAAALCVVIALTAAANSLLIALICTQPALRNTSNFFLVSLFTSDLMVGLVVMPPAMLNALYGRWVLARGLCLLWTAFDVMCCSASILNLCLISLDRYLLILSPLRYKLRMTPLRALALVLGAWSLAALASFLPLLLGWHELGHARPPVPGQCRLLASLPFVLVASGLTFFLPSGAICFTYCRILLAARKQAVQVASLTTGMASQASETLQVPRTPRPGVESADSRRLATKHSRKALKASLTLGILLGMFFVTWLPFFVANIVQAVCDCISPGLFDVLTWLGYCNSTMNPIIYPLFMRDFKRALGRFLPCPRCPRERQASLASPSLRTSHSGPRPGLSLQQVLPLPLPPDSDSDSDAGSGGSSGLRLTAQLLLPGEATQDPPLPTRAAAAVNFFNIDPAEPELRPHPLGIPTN
Procedure: To evaluate in radioligand binding assays the activity of compounds of the invention, human recombinant serotonin (5-Hydroxytryptamine) 5-HT6 receptor expressed in human HeLa cells (Monsma, F. Jr. et al, Mol. Pharmacol. 43:320, 1993) in a modified Tris-HCl buffer (50 mM Tris-HCl, pH 7.4, 150 mM NaCl, 2 mM Ascorbic Acid, 0.001% BSA) was used. Compounds of the invention were incubated with 1.5 nM [3H]Lysergic acid diethylamide (LSD) for 120 min at 37° C. Non-specific binding was estimated in the presence of 5 μM Serotonin (5-HT). Receptor proteins were filtered and washed, the filters were then counted to determine [3H]LSD specifically bound. Compounds were screened at 1 μM or lower, using 1% DMSO as vehicle. Biochemical assay results are presented as the percent inhibition of specific binding in Table 5.

Row | Compound | inhibition at 0.1 µM [1] | inhibition at 0.1 µM [2] | inhibition at 0.1 µM [3] | inhibition at 0.1 µM [4]
1 | Cc1ccc2c(c1)c1c(n2/C=C2\CCCc3ccccc32)CCN(C)C1 [i-3] | 43% | 100% | 91% | 83%
2 | Cc1ccc2c(c1)c1c(n2/C=C2/CCCc3ccccc32)CCN(C)C1 [i-2] | 86% | 99% | 101% | 102%
